According to patent US10597388B2, “Pyridazinone herbicides” (FMC CORPORATION, priority 2014, dated 2020):

Legend:
Type in all cases: in vivo
kochia (Kochia scoparia) = assay: Test A greenhouse herbicide test, pre- and postemergence
Outline: (§1)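 Seeds sown in loam–sand blend got a preemergence directed soil spray of compound in non-phytotoxic solvent with surfactant. Postemergence treatment was given at 2–10 cm, one- to two-leaf stage. After ~10 d in greenhouse, injury was rated visually vs untreated controls, 0 (no effect) to 100 (complete control).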

[1] = tested on: ryegrass, Italian (Italian ryegrass, Lolium multiflorum); assay: as above
Outline: as §1

[2] = tested on: wheat (Triticum aestivum); assay: as above; conditions: Postemergence
Outline: as §1

[3] = tested on: barnyardgrass (Echinochloa crus-galli); assay: Test B flooded paddy test; conditions: 250 g ai/ha, Flood; visual rating on scale of 0 to 100 where 0 is no effect and 100 is complete control; 13 to 15 d after treatment
Outline: (§2)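 Plants at the 2-leaf stage were flooded to 3 cm above soil, and test compounds were applied directly into the paddy water, which was held at that depth throughout. After 13 to 15 d in a greenhouse, injury was rated visually against untreated controls on a 0–100 scale (0 no effect, 100 complete control).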

[4] = tested on: ducksalad (Heteranthera limosa); assay: Test B flooded paddy test; conditions: 250 g ai/ha, Flood; visual rating on scale of 0 to 100 where 0 is no effect and 100 is complete control; 13 to 15 d after treatment
Outline: as §2

rice (Oryza sativa) = assay: Test B flooded paddy test; conditions: 250 g ai/ha, Flood; visual rating on scale of 0 to 100 where 0 is no effect and 100 is complete control; 13 to 15 d after treatment
Outline: as §2

[5] = tested on: sedge, umbrella (small-flower umbrella sedge, Cyperus difformis); assay: Test B flooded paddy test; conditions: 250 g ai/ha, Flood; visual rating on scale of 0 to 100 where 0 is no effect and 100 is complete control; 13 to 15 d after treatment
Outline: as §2

[6] = tested on: chickweed (common chickweed, Stellaria media); assay: Test C greenhouse herbicide test, postemergence
Outline: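 Steps: pot plants in peat-based medium; spray postemergence at 1- to 4-leaf stage; hold in greenhouse 13 to 15 d; score visually against controls from 0 (no effect) to 100 (complete control).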

[7] = Postemergence, 125 g ai/ha, 0 to 100 scale where 0 is no effect and 100 is complete control
[8] = Postemergence, 500 g ai/ha, visual rating after approx. 10 d, 0 to 100 scale (0 no effect, 100 complete control)
[9] = Preemergence, 500 g ai/ha, 0 to 100 scale where 0 is no effect and 100 is complete control
[10] = 500 g ai/ha, visual rating after approx. 10 d, 0 to 100 scale (0 no effect, 100 complete control)
[11] = Postemergence, 31 g ai/ha, scale 0 to 100 (0 no effect, 100 complete control)
[12] = Postemergence, 62 g ai/ha, 0 to 100 scale (0 no effect, 100 complete control)
[13] = postemergence, 125 g ai/ha, scale 0 to 100, 0 no effect, 100 complete control
[14] = Postemergence, 125 g ai/ha, 0 to 100 scale, 0 no effect, 100 complete control
[15] = Preemergence, 125 g ai/ha, visual injury rating, 0 to 100 scale (0 no effect, 100 complete control), approx. 10 d
[16] = 125 g ai/ha, 0 to 100 scale, 0 no effect, 100 complete control
[17] = Postemergence, 250 g ai/ha, scale 0 to 100, 0 no effect, 100 complete control, 13 to 15 d
[18] = Postemergence, 250 g ai/ha, scale 0 to 100, 0 is no effect, 100 is complete control

Compound | Plant response rating, Kochia (kochia (Kochia scoparia); [8]) | Plant response rating, Kochia (kochia (Kochia scoparia); [9]) | Plant response rating, Ryegrass, Italian [1, 8] | Plant response rating, Ryegrass, Italian [1, 9] | Plant response rating, Wheat [2, 10] | Plant response rating, Barnyardgrass [3] | Plant response rating, Ducksalad [4] | Plant response rating, Rice (rice (Oryza sativa)) | Plant response rating, Sedge, Umbrella [5] | Plant response rating, Chickweed [6, 11] | Chickweed plant response rating [6, 12] | Chickweed plant response rating [6, 13] | Plant response rating, Kochia (kochia (Kochia scoparia); [14]) | Plant response rating, Kochia (kochia (Kochia scoparia); [15]) | Plant response rating, Ryegrass, Italian [1, 14] | Plant response rating, Ryegrass, Italian [1, 15] | Plant response rating, Wheat [2, 16] | Plant response rating, Chickweed [6, 17] | Plant response rating, Chickweed [6, 18] | further results
COC(=O)Oc1cnn(C)c(=O)c1-c1c(C)ccc2ccccc12 [Compound 143] | 90 | 70 | 100 | 100 | 50 | 0 | 0 | 0 | 0 | 45 | 70 | 80 | – | – | – | – | – | – | – | Plant response rating, Kochia (kochia (Kochia scoparia); [7]): 70; Kochia plant response rating (kochia (Kochia scoparia); Preemergence, 125 g ai/ha, 0 to 100 scale where 0 is no effect and 100 is complete control): 10; Plant response rating, Ryegrass, Italian [1, 7]: 80; Plant response rating, Wheat ([2]; 125 g ai/ha, 0 to 100 scale where 0 is no effect and 100 is complete control): 0; Plant response rating, Chickweed ([6]; Postemergence, 16 g ai/ha, scale 0 to 100 (0 no effect, 100 complete control)): 30
CC(=O)Oc1c(C)nn(C)c(=O)c1-c1c(C)cc(C)c2ccccc12 [Compound 153] | 90 | 90 | 100 | 100 | 30 | 0 | 0 | 0 | 0 | 90 | 95 | 98 | 40 | 80 | 100 | 100 | 0 | 98 | – | –
Cc1cc(C)c2ccccc2c1-c1c(OS(C)(=O)=O)c(C)nn(C)c1=O [Compound 154] | 50 | 20 | 100 | 100 | 20 | 50 | 60 | 50 | 80 | 90 | 90 | 90 | 20 | 0 | 90 | 90 | 0 | 95 | – | –
COC(=O)Oc1c(C)nn(C)c(=O)c1-c1c([N+](=O)[O-])ccc2ccccc12 [Compound 162] | 90 | 90 | 90 | 100 | 20 | 0 | 0 | 0 | 0 | 90 | 90 | 95 | 70 | 60 | 60 | 40 | 0 | 95 | – | –
CC(=O)Oc1c(C)nn(C)c(=O)c1-c1c([N+](=O)[O-])ccc2ccccc12 [Compound 164] | 90 | 100 | 90 | 100 | 0 | 0 | 0 | 0 | 0 | 80 | 90 | 95 | 60 | 60 | 70 | 60 | 0 | – | 98 | –
CSCC(=O)Oc1c(C)nn(C)c(=O)c1-c1cccc2ccccc12 [Compound 171] | 100 | 100 | 100 | 100 | 70 | 0 | 0 | 0 | 60 | 90 | 90 | 90 | 100 | 100 | 100 | 100 | 30 | – | 95 | –
